{"source": "patent US20240319166A1", "about": "“Genetically-encoded volatile synthetic biomarkers for breath-based cancer detection” (The Board of Trustees of the Leland Stanford Junior …, priority 2021, published 2024)", "key": {"[1]": {"conditions": "cited from earlier work"}, "[2]": {"test": "Quantitation of limonene evolution from limonene-injected mice (closed chamber, SIFT-MS)", "type": "in vivo", "experimental": "Having observed robust limonene expression in transfected HeLa cells in culture, the feasibility of detecting limonene in exhaled breath from rodents was then tested. A standard curve relating limonene concentration in chamber headspace to the quantity of limonene spiked into 0.5-L chambers was generated. To determine the fraction of limonene in mice that was emitted into the headspace, mice were injected intraperitoneally with different quantities of a limonene standard solution (from 0.01 μg to 1 mg) and individual mice were placed in a closed chamber for 15 minutes, at which point headspace limonene concentrations were measured by SIFT-MS (FIG. 4A and FIG. 4B).\nUsing the standard curve, the mass of limonene exhaled by mice at each quantity injected was determined and the fraction exhaled was calculated. At the LOD (0.5 ppb), limonene in the chamber headspace became detectable when 2.3 ng had been spiked into the chamber, whereas limonene evolving from mice only became detectable at an injected dose of 450 ng (FIG. 4B, Supplementary Calculations shown in Example 2, infra). […]\nPrior to mouse studies, a calibration curve was generated. Known limonene quantities (10 μg to 100 μg) were added to 10 mL of water in […] (Kent Scientific, Torrington, CT). […]"}}}
{"smiles": "C=C(C)[C@H]1CC=C(C)CC1", "note": "[limonene]", "values": [{"measurement": "safe oral dose", "setting": "[1]", "result": "≤ 100", "unit": "mg/kg"}, {"measurement": "safe oral dose for an average 70 kg adult", "setting": "[1]", "result": "~7", "unit": "g"}, {"measurement": "fraction of injected limonene emitted into the chamber headspace", "setting": "[2]; intraperitoneal injection, 0.5-L chamber, within 15 minutes", "result": "~0.5", "unit": "%"}, {"measurement": "injected dose at which limonene evolving from mice became detectable", "setting": "[2]; intraperitoneal, at the LOD (0.5 ppb), 15 minutes", "result": 450, "unit": "ng"}]}
